# Strand notation (5' to 3'): a small letter for the sugar, then the base; units joined by * are phosphorothioate-linked, units joined directly phosphodiester-linked; [ ] holds rarer units or linkages, { } end groups; capitals alone tell only the bases. e = 2'-O-(2-methoxyethyl) (MOE); k = constrained ethyl (cEt); [5mC] = 5-methylcytosine; d = 2'-deoxy (DNA)
# Tested on: human PKK mRNA
# Test: Antisense inhibition of human PKK mRNA in HepaRG cells, 1,000 nM, MOE/deoxy/cEt oligonucleotides (Example 3)
# Type: cell-based
# Details: HepaRG cells, 1,000 nM antisense oligonucleotide, Table 29
# In short: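 HepaRG cells at 20,000 per well electroporated with 1,000 nM 16-mer MOE/cEt/deoxy gapmers (phosphorothioate, 5-methylcytosine). After about 24 h, PKK mRNA measured by qRT-PCR with primer probe set RTS3454, normalized to RIBOGREEN total RNA. Reported as percent inhibition versus untreated cells.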
row,Substance,% inhibition
1,548576 (eT*e[5mC]*kA*dT*dG*dT*dG*dG*d[5mC]*dA*dA*d[5mC]*d[5mC]*kT*kG*eT; antisense) [compound 548576],41%
2,548569 (eA*e[5mC]*kT*d[5mC]*dA*dT*dT*dG*dG*dT*d[5mC]*dT*dA*k[5mC]*kA*eG; antisense) [compound 548569],41%
3,548545 (antisense e[5mC]*eT*k[5mC]*dT*dT*d[5mC]*dG*d[5mC]*dA*dT*dG*dG*dA*k[5mC]*kA*e[5mC]) [compound 548545],46%
4,548565 (antisense eG*eG*k[5mC]*dA*dT*dT*dA*dG*dG*dA*dT*dA*dG*kG*k[5mC]*eA) [compound 548565],63%
5,548585 (eT*eA*kG*dG*d[5mC]*dA*d[5mC]*dA*dG*dA*d[5mC]*dA*dA*k[5mC]*k[5mC]*eT; antisense) [compound 548585],33%

# Same assay, conditions: HepaRG cells, electroporation with 1,000 nM antisense oligonucleotide, approx. 24 hours, PKK mRNA by RT-PCR (RTS3454), relative to untreated control cells; Table 25 experiment
row,Substance,% inhibition
1,548157 (eA*eT*kT*dG*dT*d[5mC]*dA*dG*d[5mC]*d[5mC]*d[5mC]*d[5mC]*dT*kG*kG*eT; antisense) [compound 548157],7%
2,548187 (e[5mC]*eA*kT*d[5mC]*d[5mC]*dT*dA*dT*d[5mC]*d[5mC]*dG*dT*dG*kT*kT*e[5mC]; antisense) [compound 548187],33%

# Same assay, conditions: HepaRG cells, electroporation with 1,000 nM antisense oligonucleotide, approx. 24 hours, PKK mRNA by RT-PCR (RTS3454), relative to untreated control cells; Table 26 experiment
row,Substance,% inhibition
1,548277 (antisense eG*eG*kA*dT*dT*dG*dG*dA*d[5mC]*d[5mC]*d[5mC]*dA*dG*kA*k[5mC]*eA) [compound 548277],57%
2,548288 (eG*eA*kA*dT*dA*dG*d[5mC]*dA*dA*dG*d[5mC]*dT*d[5mC]*k[5mC]*kA*eA; antisense) [compound 548288],64%
3,548298 (eG*eG*kA*d[5mC]*dA*dA*dT*dA*dT*dG*dT*d[5mC]*dT*k[5mC]*k[5mC]*eT; antisense) [compound 548298],0%
4,548239 (eT*eA*k[5mC]*dT*d[5mC]*dG*d[5mC]*d[5mC]*dT*dT*dT*dG*dT*kG*kA*e[5mC]; antisense) [compound 548239],18%

# Same assay, conditions: HepaRG cells, electroporation with 1,000 nM antisense oligonucleotide, approximately 24 hours, primer probe set RTS3454, relative to untreated control cells; experiment of Table 23
row,Substance,% inhibition
1,547975 (antisense e[5mC]*eA*kA*dA*dG*dT*d[5mC]*dA*dA*d[5mC]*dT*d[5mC]*d[5mC]*k[5mC]*kG*eG) [compound 547975],44%
2,547923 (eA*eT*k[5mC]*dT*dG*dG*dA*dG*dT*dG*dA*dG*dA*kA*k[5mC]*e[5mC]; antisense) [compound 547923],68%

# Same assay, conditions: HepaRG cells, electroporation with 1,000 nM antisense oligonucleotide, approximately 24 hours, primer probe set RTS3454, relative to untreated control cells; experiment of Table 24
row,Substance,% inhibition
1,548029 (eT*eG*kG*dT*dG*dT*d[5mC]*d[5mC]*dT*dA*dT*dG*dA*kG*kT*eG; antisense) [compound 548029],12%
2,548012 (eT*e[5mC]*k[5mC]*d[5mC]*d[5mC]*dA*dG*dT*dG*dT*dT*dA*d[5mC]*kA*k[5mC]*eA; antisense) [compound 548012],3%

# Same assay, conditions: PKK mRNA, HepaRG cells, 1,000 nM antisense oligonucleotide; Table 31
row,Substance,% inhibition
1,548675 (antisense eG*eG*kG*dA*dA*dG*dG*dT*dA*dG*dT*dG*dT*kT*kA*e[5mC]) [compound 548675],8%
2,548671 (antisense e[5mC]*eA*kA*d[5mC]*dA*dA*dT*d[5mC]*d[5mC]*dA*dA*dA*dG*k[5mC]*k[5mC]*eT) [compound 548671],3%
3,548647 (antisense e[5mC]*eA*k[5mC]*dG*dG*d[5mC]*dA*dA*dG*dT*d[5mC]*dG*d[5mC]*kG*kG*eG) [compound 548647],39%
4,548657 (antisense eA*eG*k[5mC]*dA*dG*dG*dG*dT*dA*dT*d[5mC]*dT*dT*k[5mC]*kA*e[5mC]) [compound 548657],26%
5,548663 (antisense eG*e[5mC]*k[5mC]*d[5mC]*dT*dA*dG*dA*dA*dG*dG*dG*d[5mC]*k[5mC]*k[5mC]*eA) [compound 548663],20%

# Same assay, conditions: Table 19; HepaRG cells, electroporation with 1,000 nM antisense oligonucleotide, approximately 24 hours; PKK mRNA by RT-PCR (RTS3454), relative to untreated control cells
row,Substance,% inhibition
1,548134 (e[5mC]*eA*kG*dA*dA*dT*dT*dT*dG*dA*d[5mC]*dT*dT*kG*kA*eA; antisense) [compound 548134],17%
2,548100 (antisense eA*e[5mC]*kT*d[5mC]*dA*dG*d[5mC]*dG*dA*d[5mC]*dT*dT*dT*kG*kG*eT) [compound 548100],25%

# Same assay, conditions: Table 20; HepaRG cells, electroporation with 1,000 nM antisense oligonucleotide, approximately 24 hours; PKK mRNA by RT-PCR (RTS3454), relative to untreated control cells
row,Substance,% inhibition
1,547907 (eA*eT*kT*dT*d[5mC]*dT*dG*dA*dA*dA*dG*dG*dG*k[5mC]*kA*e[5mC]; antisense) [compound 547907],27%
2,547856 (antisense e[5mC]*eA*kT*dA*dT*d[5mC]*dA*dA*d[5mC]*dT*d[5mC]*d[5mC]*dT*kT*kT*eA) [compound 547856],93%

# Same assay, conditions: Table 21 experiment; HepaRG cells, electroporation with 1,000 nM antisense oligonucleotide, approx. 24 hours; PKK mRNA by RT-PCR (RTS3454), relative to untreated control cells
row,Substance,% inhibition
1,547795 (antisense eA*e[5mC]*k[5mC]*dT*d[5mC]*dT*dG*dA*dA*dG*dA*dA*dG*kG*k[5mC]*eG) [compound 547795],66%
2,547819 (e[5mC]*eA*kT*dT*dG*dA*dT*dT*dG*dA*dA*d[5mC]*dT*kT*kG*e[5mC]; antisense) [compound 547819],11%
3,547771 (antisense e[5mC]*eT*kT*dG*dG*dA*dG*dG*dT*dG*dA*dG*dT*k[5mC]*kT*e[5mC]) [compound 547771],60%
4,547834 (eA*eA*kA*d[5mC]*dT*dG*d[5mC]*dA*d[5mC]*d[5mC]*dT*dG*dT*kT*k[5mC]*eG; antisense) [compound 547834],63%
5,547796 (antisense eA*eT*k[5mC]*d[5mC]*d[5mC]*d[5mC]*dA*d[5mC]*d[5mC]*dT*d[5mC]*dT*dG*kA*kA*eG) [compound 547796],35%

# Same assay, conditions: Table 22 experiment; HepaRG cells, electroporation with 1,000 nM antisense oligonucleotide, approx. 24 hours; PKK mRNA by RT-PCR (RTS3454), relative to untreated control cells
row,Substance,% inhibition
1,547907 (eA*eT*kT*dT*d[5mC]*dT*dG*dA*dA*dA*dG*dG*dG*k[5mC]*kA*e[5mC]; antisense) [compound 547907],27%
2,547856 (antisense e[5mC]*eA*kT*dA*dT*d[5mC]*dA*dA*d[5mC]*dT*d[5mC]*d[5mC]*dT*kT*kT*eA) [compound 547856],51%

# Same assay, conditions: Table 27; HepaRG cells, 1,000 nM antisense oligonucleotide; human PKK mRNA
row,Substance,% inhibition
1,548356 (antisense eT*eG*kT*dT*dG*dG*dT*d[5mC]*dA*dG*d[5mC]*dA*dT*kT*k[5mC]*eA) [compound 548356],63%
2,548333 (antisense eG*eA*k[5mC]*dT*dG*dT*dG*d[5mC]*dT*dA*dT*d[5mC]*d[5mC]*kG*k[5mC]*eT) [compound 548333],58%
3,548373 (eT*e[5mC]*k[5mC]*d[5mC]*d[5mC]*dA*dA*dG*dA*dT*dT*dA*dT*kG*kT*eG; antisense) [compound 548373],16%
4,548329 (antisense eA*eG*k[5mC]*dA*dG*dA*dT*d[5mC]*dT*dG*dG*dG*dT*kT*kG*eT) [compound 548329],59%
5,548321 (e[5mC]*eT*kG*d[5mC]*dA*dT*d[5mC]*dT*dG*dG*dA*d[5mC]*dT*kA*kT*eG; antisense) [compound 548321],38%
6,548369 (eG*eT*kT*dG*dG*dG*dA*dT*dG*d[5mC]*dG*dA*d[5mC]*kT*k[5mC]*eT; antisense) [compound 548369],50%

# Same assay, conditions: Table 28; HepaRG cells, 1,000 nM antisense oligonucleotide; human PKK mRNA
row,Substance,% inhibition
1,548519 (antisense e[5mC]*e[5mC]*kT*d[5mC]*d[5mC]*d[5mC]*d[5mC]*dT*dT*dG*dT*dG*dT*kG*kT*e[5mC]) [compound 548519],31%
2,548512 (antisense eT*e[5mC]*k[5mC]*dG*d[5mC]*d[5mC]*dT*dT*dT*dG*dG*dA*dT*kA*k[5mC]*eT) [compound 548512],49%
3,548526 (antisense e[5mC]*eT*kA*dA*dG*d[5mC]*dT*dG*dT*dG*dT*d[5mC]*dT*k[5mC]*kA*eT) [compound 548526],26%
4,548468 (e[5mC]*eA*kA*d[5mC]*dA*dT*d[5mC]*dA*d[5mC]*dT*dG*dT*dA*k[5mC]*k[5mC]*eT; antisense) [compound 548468],6%
5,548510 (antisense eT*eT*kA*dG*d[5mC]*d[5mC]*dA*d[5mC]*dT*d[5mC]*d[5mC]*dT*d[5mC]*kT*kT*eG) [compound 548510],30%

# Same assay, conditions: Table 30; human PKK mRNA, HepaRG cells, 1,000 nM antisense oligonucleotide
row,Substance,% inhibition
1,548393 (e[5mC]*eG*k[5mC]*dT*dT*d[5mC]*dA*dG*dG*dA*dA*dA*dG*k[5mC]*kG*eA; antisense) [compound 548393],26%
2,548428 (antisense eT*eA*kA*d[5mC]*dT*dA*dT*dA*dA*d[5mC]*dA*dG*dT*kA*kT*e[5mC]) [compound 548428],0%
3,548440 (antisense e[5mC]*e[5mC]*kT*dA*dT*dA*dA*d[5mC]*dA*dG*dT*dA*dT*k[5mC]*kA*e[5mC]) [compound 548440],32%
4,548450 (e[5mC]*eT*kA*d[5mC]*d[5mC]*dT*dA*dT*dA*dA*d[5mC]*dT*d[5mC]*kT*kA*eA; antisense) [compound 548450],0%
5,548438 (antisense e[5mC]*eT*kA*dT*dA*dT*d[5mC]*dA*d[5mC]*dT*dG*dT*dA*k[5mC]*k[5mC]*eT) [compound 548438],38%
6,548442 (antisense eT*eT*k[5mC]*d[5mC]*dT*dA*dT*dA*dA*d[5mC]*dA*dG*dT*kA*kT*e[5mC]) [compound 548442],17%
7,548413 (antisense e[5mC]*eT*kA*dA*d[5mC]*dA*dG*dT*dA*dT*d[5mC]*dA*d[5mC]*kT*kG*eT) [compound 548413],55%
